For the assay, the target named is Beta-secretase 1 (Homo sapiens, UniProt P56817). The assay can be described thus: Binding affinity for human brain memapsin 2 beta-Secretase (BACE).
Chain of Beta-secretase 1 (P56817 whole entry): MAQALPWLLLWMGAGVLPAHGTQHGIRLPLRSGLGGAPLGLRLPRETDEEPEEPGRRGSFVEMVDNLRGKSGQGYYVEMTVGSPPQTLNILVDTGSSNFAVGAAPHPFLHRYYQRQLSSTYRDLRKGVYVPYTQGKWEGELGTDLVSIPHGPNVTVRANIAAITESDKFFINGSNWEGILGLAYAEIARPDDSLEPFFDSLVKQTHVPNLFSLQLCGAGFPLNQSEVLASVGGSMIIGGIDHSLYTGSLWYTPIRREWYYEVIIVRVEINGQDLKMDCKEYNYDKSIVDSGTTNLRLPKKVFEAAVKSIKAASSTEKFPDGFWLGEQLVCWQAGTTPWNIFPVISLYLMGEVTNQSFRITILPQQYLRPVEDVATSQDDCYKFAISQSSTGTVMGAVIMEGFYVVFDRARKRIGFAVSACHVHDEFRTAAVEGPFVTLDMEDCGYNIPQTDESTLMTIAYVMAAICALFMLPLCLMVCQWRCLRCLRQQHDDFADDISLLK
Molecule `CSCCC(NC(=O)[C@@H](NC(=O)OC(C)(C)C)C(C)C)C(=O)N[C@@H](CC(C)C)C(O)CC(C)C(=O)NC(C(=O)NCc1ccccc1)C(C)C` (some centres undefined) yielded a Ki of 2.5 nM.

For the molecule `CC(C)C[C@H](NC(=O)C(CS(C)(=O)=O)NC(=O)[C@@H](NC(=O)OC(C)(C)C)C(C)C)C(O)CC(C)C(=O)NC(C(=O)NCc1ccccc1)C(C)C` (some centres undefined), the affinity, expressed as Ki, was 9.4 nM.

`CC(C)C[C@H](NC(=O)[C@H](CS(C)(=O)=O)NC(=O)OC(C)(C)C)C(O)CC(C)C(=O)NC(C(=O)NCc1ccccc1)C(C)C` (some centres undefined) came in with a Ki of 1130 nM.

As to `CC(C)C[C@H](NC(=O)C(CC(N)=O)NC(=O)[C@@H](NC(=O)OC(C)(C)C)C(C)C)C(O)CC(C)C(=O)NC(C(=O)NCc1ccccc1)C(C)C` (some centres undefined), the Ki was found to be 5.9 nM.

`CC(C)C[C@H](NC(=O)[C@H](CC(N)=O)NC(=O)OC(C)(C)C)C(O)CC(C)C(=O)NC(C(=O)NCc1ccccc1)C(C)C` (some centres undefined) gave an inhibition constant (Ki) of 3130 nM.

In turn, `CC(C)C[C@H](NC(=O)[C@H](CC(N)=O)NC(=O)OC(C)(C)C)C(O)CC(C)C(=O)NC(C)C(=O)NCc1ccccc1` (some centres undefined) yielded a Ki of 22400 nM.

As to `CSCC(NC(=O)[C@@H](NC(=O)OC(C)(C)C)C(C)C)C(=O)N[C@@H](CC(C)C)C(O)CC(C)C(=O)NC(C(=O)NCc1ccccc1)C(C)C` (some centres undefined), the Ki is 50.1 nM.

`CC(C)C[C@H](NC(=O)C(CC(N)=O)NC(=O)[C@@H](NC(=O)OC(C)(C)C)C(C)C)C(O)CC(C)C(=O)NC(C)C(=O)NCc1ccccc1` (some centres undefined) had a Ki of 61.4 nM.

As to `CSCCC(NC(=O)OC(C)(C)C)C(=O)N[C@@H](CC(C)C)C(O)CC(C)C(=O)NC(C(=O)NCc1ccccc1)C(C)C` (some centres undefined), the Ki worked out at 5810 nM.

Usually Ki stands for the equilibrium dissociation constant of an inhibitor or competing ligand from its target.

The values are drawn from ChEMBL document CHEMBL1144924, “Calculation of the binding affinity of beta-secretase inhibitors using the linear interaction energy method” (J Med Chem, 2003).
